21 molecules from patent US9815796B2 (Merck Sharp & Dohme Corp., priority 2013, dated 2017) can be followed below.

The structures appear in SMILES notation. Like-named read-outs stand apart in the source and are kept apart here.

The Ki is the equilibrium dissociation constant of an inhibitor or competing ligand from its target.

The target in assay [1] is Rhesus PDE2A3 (Macaca mulatta, UniProt B3VTJ2). The assay can be described thus: PDE2 fluorescence polarization (IMAP FP) inhibition assay, rhesus enzyme. The class given is biochemical, rhesus macaque. In short, it runs like this:
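Rhesus PDE2A3 came from lysate of transiently transfected AD293 cells, diluted to give 20% substrate conversion. Substrate was 50 nM FAM-cAMP with 1 uM cGMP activator in Tris pH 7.2/MgCl2 buffer, run 60 min at room temperature over 10-point 3-fold dilutions in 1% DMSO. Read-out was IMAP fluorescence polarization (mP) after ≥1 h binding.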
Background: In fluorescence polarisation assays a small probe gives low polarisation when free and higher when bound to something large.

The target of assay [2] is human PDE2A1 (Homo sapiens (Human), UniProt O00408). In words: IMAP FP PDE selectivity panel, human PDE2A1. The class given is biochemical. An outline of the steps:
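GST-tagged human PDE2A1 expressed in insect cells, run at room temperature for 60 min with 50 nM FAM-cAMP containing 1000 nM cGMP, pH 7.2 Tris/MgCl2 buffer. IMAP fluorescence polarization read after binding step.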

The mark [3] stands for this setting: Rhesus PDE2, Lab A, read-out: Rhesus PDE2 Ki (nM) - Lab A.
Where [4] appears, read: Human PDE2, Lab A, read-out: Human PDE2 Ki (nM) - Lab A.
The mark [5] stands for this setting: Rhesus PDE2, Lab B, read-out: Rhesus PDE2 Ki (nM) - Lab B.
The mark [6] stands for this setting: Human PDE2, Lab B, read-out: Human PDE2 Ki (nM) - Lab B.

Sequence of Rhesus PDE2A3 (B3VTJ2 1-941): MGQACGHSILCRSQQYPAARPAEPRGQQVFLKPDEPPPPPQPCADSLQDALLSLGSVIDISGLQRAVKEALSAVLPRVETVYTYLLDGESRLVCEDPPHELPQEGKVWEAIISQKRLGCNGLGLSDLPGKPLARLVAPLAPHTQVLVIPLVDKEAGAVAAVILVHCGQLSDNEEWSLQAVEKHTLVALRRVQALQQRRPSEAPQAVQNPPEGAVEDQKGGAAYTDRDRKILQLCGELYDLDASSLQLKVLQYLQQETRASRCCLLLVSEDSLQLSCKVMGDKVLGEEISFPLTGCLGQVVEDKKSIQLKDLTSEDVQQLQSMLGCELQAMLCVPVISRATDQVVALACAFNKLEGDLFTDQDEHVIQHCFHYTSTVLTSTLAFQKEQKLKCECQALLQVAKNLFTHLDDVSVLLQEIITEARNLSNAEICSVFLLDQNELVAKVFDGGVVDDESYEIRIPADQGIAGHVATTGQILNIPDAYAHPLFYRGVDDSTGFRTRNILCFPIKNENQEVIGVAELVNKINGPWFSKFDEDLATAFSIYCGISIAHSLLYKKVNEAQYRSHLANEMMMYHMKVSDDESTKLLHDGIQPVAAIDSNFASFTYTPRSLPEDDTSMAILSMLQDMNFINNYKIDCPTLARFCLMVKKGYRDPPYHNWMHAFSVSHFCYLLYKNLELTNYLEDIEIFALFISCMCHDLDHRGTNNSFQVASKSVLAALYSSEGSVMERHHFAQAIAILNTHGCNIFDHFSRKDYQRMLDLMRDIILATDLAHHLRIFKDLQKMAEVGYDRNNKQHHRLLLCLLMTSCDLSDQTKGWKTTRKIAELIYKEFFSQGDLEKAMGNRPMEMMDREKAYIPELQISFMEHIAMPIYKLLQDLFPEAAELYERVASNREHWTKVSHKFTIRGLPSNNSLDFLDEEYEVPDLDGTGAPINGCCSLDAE
Sequence of human PDE2A1 (O00408 other isoform, or with tags, fused parts or gaps): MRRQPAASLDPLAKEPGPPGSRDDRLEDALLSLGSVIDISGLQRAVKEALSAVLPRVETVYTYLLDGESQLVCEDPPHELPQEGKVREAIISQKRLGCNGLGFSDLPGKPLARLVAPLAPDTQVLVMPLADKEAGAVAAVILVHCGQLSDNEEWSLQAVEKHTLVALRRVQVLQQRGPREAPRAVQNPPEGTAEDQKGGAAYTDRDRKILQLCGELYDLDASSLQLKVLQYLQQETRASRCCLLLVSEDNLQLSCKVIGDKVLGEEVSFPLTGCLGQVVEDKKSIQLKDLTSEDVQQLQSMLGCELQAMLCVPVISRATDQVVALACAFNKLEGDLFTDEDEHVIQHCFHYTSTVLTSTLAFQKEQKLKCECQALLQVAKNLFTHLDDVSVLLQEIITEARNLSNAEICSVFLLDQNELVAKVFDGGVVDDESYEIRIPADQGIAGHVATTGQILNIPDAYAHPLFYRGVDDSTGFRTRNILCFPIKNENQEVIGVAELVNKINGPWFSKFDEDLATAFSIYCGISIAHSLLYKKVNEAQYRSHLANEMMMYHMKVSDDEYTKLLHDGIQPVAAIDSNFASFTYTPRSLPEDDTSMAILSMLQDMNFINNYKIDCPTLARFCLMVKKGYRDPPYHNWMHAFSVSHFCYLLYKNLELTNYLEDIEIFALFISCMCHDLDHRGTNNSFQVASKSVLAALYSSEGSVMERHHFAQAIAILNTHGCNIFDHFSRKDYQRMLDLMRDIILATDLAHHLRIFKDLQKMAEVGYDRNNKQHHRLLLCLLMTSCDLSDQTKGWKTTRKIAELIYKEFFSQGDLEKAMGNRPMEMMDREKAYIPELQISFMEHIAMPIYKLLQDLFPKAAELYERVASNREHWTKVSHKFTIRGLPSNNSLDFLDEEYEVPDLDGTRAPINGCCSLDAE

Consider `Cc1nc(C(=O)N[C@H](C)c2cccc3ccccc23)cc(=O)[nH]1` [Example 301, (R)-2-methyl-N-(1-(naphthalen-1-yl)ethyl)-6-oxo-1,6-dihydropyrimidine-4-carboxamide], for which the Ki in assay [1] (setting [3]) was 53 nM; in assay [2] (setting [4]), 66 nM.

For `COc1ccc(Cc2nc(C(=O)N[C@@H](c3ccc(OC(F)(F)F)cc3)C(C)(C)C)cc(=O)[nH]2)cc1` [Example 467, N-{(1R)-2,2-dimethyl-1-[4-(trifluoromethoxy)phenyl]propyl}-2-(4-methoxybenzyl)-6-oxo-1,6-dihydropyrimidine-4-carboxamide], the Ki came out at 0.62 nM in assay [1] (setting [5]) and 0.49 nM in assay [2] (setting [6]).

Consider `COc1ccc(Cc2nc(C(=O)N[C@@H](c3ccc(C(F)(F)F)c(F)c3)C(C)C)cc(=O)[nH]2)cc1` [Example 472, N-{(1R)-1-[3-fluoro-4-(trifluoromethyl)phenyl]-2-methylpropyl}-2-(4-methoxybenzyl)-6-oxo-1,6-dihydropyrimidine-4-carboxamide], for which the Ki came to 1.6 nM in assay [1] (setting [5]) and 1.7 nM in assay [2] (setting [6]).

For `O=C(NC1(c2ccc(C(F)(F)F)cc2)CCC1)c1cc(=O)[nH]c(-c2ncccn2)n1` [Example 286, 6-oxo-N-{1-[4-(trifluoromethyl)phenyl]cyclobutyl}-1,6-dihydro-2,2′-bipyrimidine-4-carboxamide], the Ki in assay [1] (setting [3]) came to 83 nM; in assay [2] (setting [4]), 60 nM.

For the molecule `C[C@@H](NC(=O)c1cc(=O)[nH]c(C2CC2)n1)c1ccc2ccccc2c1` [Example 224, 2-cyclopropyl-N-[(1R)-1-naphthalen-2-ylethyl]-6-oxo-1,6-dihydropyrimidine-4-carboxamide], the Ki in assay [1] (setting [3]) turned out to be 40 nM; in assay [2] (setting [4]), 20 nM.

For `CC[C@@H](NC(=O)c1cc(=O)[nH]c(-c2ncccn2)n1)c1ccc(S(F)(F)(F)(F)F)cc1` [Example 257, 6-oxo-N-{(1R)-1-[4-(pentafluoro-λ^6-sulfanyl)phenyl]propyl}-1,6-dihydro-2,2′-bipyrimidine-4-carboxamide], the Ki in assay [1] (setting [3]) is 2.6 nM; in assay [1] (setting [5]) it was 4 nM; in assay [2] (setting [6]), 3.8 nM.

For the molecule `CC[C@@H](NC(=O)c1cc(=O)[nH]c(Cc2ccc(OC)c(F)c2)n1)c1ccc(SC(F)(F)F)cc1` [Example 518, 2-(3-fluoro-4-methoxybenzyl)-6-oxo-N-[(1R)-1-{4-[(trifluoromethyl)sulfanyl]phenyl}propyl]-1,6-dihydropyrimidine-4-carboxamide], the Ki was 1.8 nM in assay [1] (setting [5]) and 1.7 nM in assay [2] (setting [6]).

Turning to `Cc1nc(C(=O)N[C@@H](c2ccc(C(F)(F)F)cc2)C(C)C)cc(=O)[nH]1` [Example 316, 2-methyl-N-{(1R)-2-methyl-1-[4-(trifluoromethyl)phenyl]propyl}-6-oxo-1,6-dihydropyrimidine-4-carboxamide], the results for the Ki in assay [1] (setting [3]) and in assay [2] (setting [4]) were 13 nM and 7.1 nM, respectively.

As to `CCc1nc(C(=O)N[C@H](C)c2ccc(C(F)(F)F)cc2)c(CC)c(=O)[nH]1` [Example 333, (R)-2,5-diethyl-6-oxo-N-(1-(4-(trifluoromethyl)phenyl)ethyl)-1,6-dihydropyrimidine-4-carboxamide], the Ki turned out to be 89 nM in assay [1] (setting [3]) and 80 nM in assay [2] (setting [4]).

Regarding `CC(C)c1nc(C(=O)N[C@H](C)c2ccc(C(F)(F)F)cc2)cc(=O)[nH]1` [Example 137, 2-(1-methylethyl)-6-oxo-N-{(1R)-1-[4-(trifluoromethyl)phenyl]ethyl}-1,6-dihydropyrimidine-4-carboxamide], the Ki in assay [1] (setting [3]) is 411 nM; in assay [2] (setting [4]), 231 nM.

`CC(NC(=O)c1cc(=O)[nH]c(-c2ncccn2)n1)c1ccc(C2CC2)cc1` (stereo not drawn) [Example 83, N-[1-(4-cyclopropylphenyl)ethyl]-6-oxo-1,6-dihydro-2,2′-bipyrimidine-4-carboxamide]: the inhibition constant Ki was 21 nM in assay [1] (setting [3]), 26 nM in assay [1] (setting [5]), roughly 5.4 nM in assay [2] (setting [4]) and 27 nM in assay [2] (setting [6]).

On to `O=C(N[C@@H](c1ccc(SC(F)(F)F)c(F)c1)C1CC1)c1cc(=O)[nH]c(-c2ncccn2)n1` [Example 452, N-[(R)-cyclopropyl{3-fluoro-4-[(trifluoromethyl)sulfanyl]phenyl}meth-yl]-6-oxo-1,6-dihydro-2,2′-bipyrimidine-4-carboxamide], for which the results for the Ki in assay [1] (setting [5]) and in assay [2] (setting [6]) were 9.8 nM and 9.3 nM, respectively.

Regarding `Cc1nc(C(=O)N[C@@H](c2ccc(C(C)C)cc2)C2(C)CC2)cc(=O)[nH]1` [Example 427, 2-methyl-N-{(R)-(1-methylcyclopropyl)[4-(1-methylethyl)phenyl]methyl}-6-oxo-1,6-dihydropyrimidine-4-carboxamide], the Ki in assay [1] (setting [5]) and in assay [2] (setting [6]) was 3.7 nM in each case.

On to `Cc1nc(C(=O)NC(C(=O)N(C)C)c2ccc(C(F)(F)F)cc2)cc(=O)[nH]1` (stereo not drawn) [Example 329, N-{2-(dimethylamino)-2-oxo-1-[4-(trifluoromethyl)phenyl]ethyl}-2-methyl-6-oxo-1,6-dihydropyrimidine-4-carboxamide], for which the Ki is 1420 nM in assay [1] (setting [3]) and 565 nM in assay [2] (setting [4]).

Consider `Cc1nc(C(=O)N[C@@H](c2ccc(S(F)(F)(F)(F)F)cc2)C(C)(C)C)cc(=O)[nH]1` [Example 618, N-{(1R)-2,2-dimethyl-1-[4-(pentafluoro-λ^6-sulfanyl)phenyl]propyl}-2-methyl-6-oxo-1,6-dihydropyrimidine-4-carboxamide], for which the Ki in assay [1] (setting [5]) and in assay [2] (setting [6]) was 2 nM throughout.

With `C[C@@H](NC(=O)c1cc(=O)[nH]c(C2CC2)n1)c1ccc(OC(F)(F)F)cc1F` [Example 297, 2-cyclopropyl-N-{(1R)-1-[2-nuoro-4-(trifluoromethoxy)phenyl]ethyl}-6-oxo-1,6-dihydropyrimidine-4-carboxamide], the Ki is 30 nM in assay [1] (setting [3]) and 16 nM in assay [2] (setting [4]).

On to `C[C@@H](NC(=O)c1cc(=O)[nH]c(-c2ccccc2)n1)c1ccc(SC(F)(F)F)cc1` [Example 142, 6-Oxo-2-phenyl-N-[(1R)-1-{4-[(trifluoromethyl)sulfanyl]phenyl}ethyl]-1,6-dihydropyrimidine-4-carboxamide], for which the Ki in assay [1] (setting [3]) amounted to 1.4 nM; in assay [2] (setting [4]), 1.5 nM.

`COc1cc(C(F)(F)F)ccc1[C@@H](C)NC(=O)c1cc(=O)[nH]c(C2CC2)n1` [Example 219, 2-cyclopropyl-N-{(1R)-1-[2-methoxy-4-(trifluoromethyl)phenyl]ethyl}-6-oxo-1,6-dihydropyrimidine-4-carboxamide]: the Ki was 43 nM in assay [1] (setting [3]) and 31 nM in assay [2] (setting [4]).

For the molecule `C[C@@H](NC(=O)c1cc(=O)[nH]c(C2CC2)n1)c1ccc(C(F)(F)F)cc1F` [Example 237, 2-cyclopropyl-N-{(1R)-1-[2-fluoro-4-(trifluoromethyl)phenyl]ethyl}-6-oxo-1,6-dihydropyrimidine-4-carboxamide], the Ki in assay [1] (setting [3]) worked out at 61 nM; in assay [2] (setting [4]) it was 35 nM.

As to `CC[C@@H](NC(=O)c1cc(=O)[nH]c(-c2ccccc2)n1)c1ccc(SC(F)(F)F)c(F)c1` [Example 385, N-[(1R)-1-{3-fluoro-4-[(trifluoromethyl)sulfanyl]phenyl}pro-pyl]-6-oxo-2-phenyl-1,6-dihydropyrimidine-4-carboxamide], the values for the Ki in assay [1] (setting [5]) and in assay [2] (setting [6]) were 7 nM and 4.4 nM, respectively.

As to `CCc1ccc(C(C)NC(=O)c2cc(=O)[nH]c(C3CC3)n2)cc1` (stereo not drawn) [Example 194, 2-cyclopropyl-N-[1-(4-ethylphenyl)ethyl]-6-oxo-1,6-dihydropyrimidine-4-carboxamide], the values for the Ki in assay [1] (setting [3]) and in assay [2] (setting [4]) were 72 nM and 28 nM, respectively.
